Test results published in patent publication US7378387B2, “Method of suppressing immune response by reducing intracellular content of glutathione in macrophages and monocytes” (Ajinomoto Co., Inc., priority 1997, dated 2008).

How the values were obtained:
[1] = system: peritoneal exudate cells (macrophages); experiment: Induction of oxidative or reductive macrophages by administration, monochlorobimane/ACAS (Example 9); assay type: in vivo, DBA/2 mice; details: for type of macrophages induced (monochlorobimane, ACAS): Day 1 and Day 2, cells harvested 20 hours later, 20 μg (NAC-OMe)2 or (NAC)2, 10 μg acetylgliotoxin, 2 mg NAC intraperitoneally, 40 μg dexamethasone subcutaneously
Description: This was clarified by harvesting peritoneal exudate cells 20 hours after the completion of the administration, adhering the cells to the plastic surface, then reacting the cells with 10 μM of monochlorobimane at 37° C. for 30 minutes, and analyzing the reaction product with ACAS. The increase in the amounts of oxidative macrophages can easily be determined visually from the fact that almost no reaction product with monochlorobimane is observed, namely, a gray or blue image is provided, and the increase in the amounts of reductive macrophages from the fact that a red or yellow image is provided respectively. […] Meanwhile, the same examination was conducted by harvesting peritoneal exudate cells after 20 hours of the administration of 2 mg of N-acetylcystine (NAC).

[2] = system: adjuvant-induced arthritis; experiment: Adjuvant-induced arthritis (AA) in rats, joint swelling (Examples 18 and 19); assay type: in vivo, Lewis rats
Description: Adjuvant-induced arthritis was triggered in Lewis rats in a conventional manner; and the effects of chemical agents were examined in the animals. Adjuvant-induced arthritis is well known as an experimental arthritis inducible in rats [Taurog et al., Meth. Enzymol. 162, 339-355 (1988)]. […] An adjuvant is administered at 1 mg/0.1 ml per rate at a site of caudal root. The edema reaches its peak about 2 to 3 weeks after the administration of the adjuvant. The edema is triggered by inflammatory infiltration of monocytes. Swollen joints are measured with a micrometer every day; comparing the diameters of the joints prior to and after adjuvant administration and after initiation of the treatment with chemical agents with the diameters of the joints in the control group, the effects of the chemical agents were expressed as the ratio in % of joint swelling in the experimental groups to joint swelling in the control group. The effects were determined on day 15 after adjuvant administration. The chemical agents were given, starting the day next to the day of adjuvant administration, and every 3 days thereafter.
A single dose is 1 mg/kg for (NAC)2 and (NAC-OMe)2; 100 mg/kg for NAC; and 0.1 mg/kg for lentinan.
Adjuvant-induced arthritis was induced in Lewis rats in a conventional manner. In the same manner as in Example 11, the effects of chemical agents were examined in these rats. The conditions were the same as described above.

[3] = system: spontaneous inflammatory bowel disease; experiment: Spontaneous inflammatory bowel disease in γc knock out mice (Example 13); assay type: in vivo; details: −/Y mice, 20 μg/h twice a week, 5 times in total; for survival rate, Day 31 / survival rate, Day 45: non-administration 33%; for occurrence rate of intestinal inflammation, Day 14 / occurrence rate of intestinal inflammation, Day 31: non-administration 83%; for occurrence rate of intestinal inflammation, Day 45: non-administration 100%
Text: In wild-type normal littermates of γc knock out mice (genetic phenotypes +/+, +/Y), no inflammatory bowel disease is observed at all under ordinary SPF breeding conditions. However, in γc knock out mice (genetic phenotypes, −/−, −/+ and −/Y), inflammatory bowel diseases occur very of ten. With respect to homo-knock out mice with −/− and −/Y phenotypes, approximately 70% thereof are spontaneously accompanied with inflammatory bowel diseases within 4 months. Also with respect to mice with +/− phenotype, approximately 60% thereof are spontaneously accompanied therewith within 6 months. That is, intestinal shortening, bloody stool, diarrhea, loose passage, anal prolapse and colonal hypertrophy are observed.
On the basis of the findings mentioned above, the effect of inhibiting spontaneous progression of inflammatory bowel disease in γc knock out mice was examined with respect to human Crohn disease and ulcerative colitis models. Saline, (NAC-OMe)2 or (NAC)2 (20 μg/h) was administered twice a week, 5 times in total, to each of 6 γc knock out male mice with […] and 6 γc knock out male mice with −/Y genotype which were inclined to have oxidative MΦ. It was examined whether or not the intestinal inflammation spontaneously progressed in −/Y was inhibited. In case of (NAC-OMe)2, on Day 14 of the administration, the occurrence rate of the non-administration −/Y group and the administration −/Y group was 83% to 25%; on Day 31, the occurrence rate was 83% to 25%, and the survival rate was 33% to 100%; and on Day 45, the occurrence rate was 100% to 25%, and the survival rate was 33% to 75%. In case of (NAC)2, it was 30, 40, 100, 40, 75% respectively.

[4] = system: macrophage-like cells from tissues of rheumatoid arthritis patients; experiment: Intracellular GSH by ACAS in macrophage-like cells from tissues of rheumatoid arthritis patients (Example 17); assay type: cell-based, human; details: 3 hours; for relative ratio of oxidative macrophages (reduced amount of intracellular glutathione) compared with saline-added group: added at 2 mM
Description: Synovial tissue was aseptically sampled from tissues resected during joint surgery. The sampled synovial tissue was rinsed in phosphate buffer, from which the surface was peeled off in a petri dish containing the same phosphate buffer. Then, the resulting synovial tissue was cut into pieces with a pair of scissors. To the pieces were added 2% hyaluronidase (manufactured by Sigma), 0.2% DNase (derived from bovine pancreas) and 5% collagenase, for enzymatic treatment at 37° C. for 2 hours. After discarding the resulting debris, a cell fraction recovered by centrifugation was adjusted to 5×10^5 cells/ml in a phenol red-free DMEM culture medium supplemented with 10% FCS (manufactured by Nikken Biology Co.). For 3 hours, the cells were allowed to adhere to the plastic surface. Plastic surface adherent macrophage-like cells harvested with a rubber policeman were then subjected to rinsing in combination with centrifugation three times using the culture medium under ice cooling. The resulting cells were designated as synovial tissue-derived macrophages and were then subjected to the following experiments.
By the same manner as in Example 3, macrophage-like cells were collected from tissues of rheumatoid arthritis patients, and were then suspended and adjusted in a phenol red-free RPMI 1640 culture medium supplemented with 10% fetal calf serum to 3×10^6 cells/ml. The suspension was divided in 100-μl portions on Lab-Tek Chamber Slide (#136439; manufactured by NUNC, CO.), for culturing in 5% CO2 at 37° C. for 3 hours; after discarding the nonadherent cells, the 200-μl serum-free culture medium further containing any of the following chemical agents was fed to the resulting culture, for reaction for 3 hours; and then, the resulting culture was rinsed three times, followed by addition of the serum-free culture medium of 200 μl and addition of monochlorobimane to a final concentration of 10 μM, for reaction for 30 minutes. The amount of intracellular GSH was assayed by imaging analysis with an ACAS system (manufactured by Meridian Co.).

[5] = system: spontaneous onset of insulin-dependent diabetes mellitus; experiment: Onset of diabetes mellitus in NOD mice dosed at age 3 to 6 and 9 to 11 weeks (Example 24); assay type: in vivo; details: doses as in the table line, 15 times in total, judged on week 22, saline 60
Text: NOD mice purchased from Nippon Clair, Co. were naturally mated together. Among the off spring mice, a colony of NOD mice with a high frequency of the spontaneous onset of insulin-dependent diabetes mellitus was established. Female NOD mice from the colony were used for the present experiment. […] Urine glucose was detected, using Uropaper (BM Test Glucose 5000, manufactured by Yamanouchi Pharmaceuticals, Co. Ltd.). The onset was judged on week 22.

[6] = Table 3, day 15 after adjuvant, every 3 days, single dose 1 mg/kg (NAC)2 and (NAC-OMe)2, 100 mg/kg NAC, 0.1 mg/kg lentinan

Compound | type of macrophages induced (monochlorobimane, ACAS) [1] | Ratio in % of joint swelling in experimental groups to joint swelling in control group [2, 6] | Ratio in % of joint swelling in experimental groups to joint swelling in control group ([2]; Table 4, intravenous) | survival rate, Day 31 [3] | survival rate, Day 45 [3] | occurrence rate of intestinal inflammation, Day 14 [3] | occurrence rate of intestinal inflammation, Day 31 [3] | occurrence rate of intestinal inflammation, Day 45 [3] | induction of oxidative macrophages on ACAS ([1]; intraperitoneally 20 μg/0.5 ml/h each, twice a week for three weeks, 9-11 weeks of age) | induction of oxidative macrophage with the reduced amount of intracellular glutathione ([4]; added at 2 μM) | Frequency (%) of onset of diabetes mellitus ([5]; intraperitoneal) | relative ratio of oxidative macrophages (reduced amount of intracellular glutathione) compared with saline-added group [4] | relative ratio of oxidative macrophages (reduced amount of intracellular glutathione) compared with saline-added group ([4]; listed as glutathione ethyl ester) | Ratio in % of joint swelling in experimental groups to joint swelling in control group ([2]; Table 4, oral) | Frequency (%) of onset of diabetes mellitus ([5]; oral)
CC(=O)N[C@@H](CSSC[C@H](NC(C)=O)C(=O)O)C(=O)O [(NAC)2, N,N′-diacetylcystine] | Oxidative macrophages were induced | 96% | 95% | 100% | 75% | 30% | 40% | 40% | – | – | – | – | – | – | –
COC(=O)[C@H](CSSC[C@H](NC(C)=O)C(=O)OC)NC(C)=O [(NAC-OMe)2, N,N′-diacetylcystine dimethyl ester] | Oxidative macrophages were induced | 50% | 42% | 100% | 75% | 25% | 25% | 25% | induction of oxidative macrophages was confirmed | confirmed | 70% | – | – | – | –
CCOC(=O)CNC(=O)[C@H](CS)NC(=O)CC[C@H](N)C(=O)O [GSH-OEt, glutathione monoethyl ester] | – | – | – | – | – | – | – | – | – | – | 0% | same action was also observed | decreased | – | –
CC(=O)N[C@@H](CS)C(=O)O [NAC, N-acetylcysteine, reference compound] | reductive macrophages were induced | 132% | – | – | – | – | – | – | – | – | – | – | – | 142% | 40%
